Patent US9181232B2, “Difluoro-hexahydro-cyclopentaoxazinyls and difluoro-hexahydro-benzooxazinyls as BACE1 inhibitors” (Hoffmann-La Roche Inc., priority 2012, dated 2015)

Target: T1, P-gp (human MDR1) (Homo sapiens, UniProt P08183)
T1 construct: host or cells: LLC-PK1 (porcine kidney epithelial) transfected with human MDR1 (L-MDR1)
Assay: P-gp (P-Glycoprotein) assay, bidirectional transcellular transport in LLC-PK1 and L-MDR1 cells
Format: in vitro ADME
Details: read-out: P-gp human, efflux ratio: substrate category
Method: The LLC-PK1 cell line (ATCC #CL-101) is a porcine kidney epithelial cell line. The MDR1 (Human multidrug resistance protein 1) transfected cell lines were obtained from Dr. A. Schinkel, The Netherlands Cancer Institute (Amsterdam, The Netherlands). All cell lines were cultured on permeable inserts (96-insert plates Millipore, 0.11 cm^2 area, pore size 0.4 μm) at 0.73*10^6 cells/ml. Transport measurements were performed at day 4 after seeding. Tightness of the cell monolayer was controlled via the permeability of the extracellular marker lucifer yellow (10 μM).
Bidirectional transcellular transport using LLC-PK1 and L-MDR1 LLC-PK1 cells exogenously expressing the human MDR1)
The experiments were performed on a TECAN automated liquid handling system. […] Concentrations of substrate in both compartments were determined by scintillation counting (digoxin) or by LC-MS/MS. The extracellular marker (lucifer yellow) was quantified using a spectrafluor plus reader at 430/535 nm (Ex/Em). In each experiment 3 different inserts were used for each condition and a mean was calculated. […]
Where Papp, A, C0, and dQ/dt represent the apparent permeability, the filter surface area, the initial concentration, and the amount transported per time period, respectively. Papp values were calculated on the basis of a single time point (2 h).
Transport efflux ratios (ER) were calculated as follows: […]

T1 sequence (P08183 whole entry): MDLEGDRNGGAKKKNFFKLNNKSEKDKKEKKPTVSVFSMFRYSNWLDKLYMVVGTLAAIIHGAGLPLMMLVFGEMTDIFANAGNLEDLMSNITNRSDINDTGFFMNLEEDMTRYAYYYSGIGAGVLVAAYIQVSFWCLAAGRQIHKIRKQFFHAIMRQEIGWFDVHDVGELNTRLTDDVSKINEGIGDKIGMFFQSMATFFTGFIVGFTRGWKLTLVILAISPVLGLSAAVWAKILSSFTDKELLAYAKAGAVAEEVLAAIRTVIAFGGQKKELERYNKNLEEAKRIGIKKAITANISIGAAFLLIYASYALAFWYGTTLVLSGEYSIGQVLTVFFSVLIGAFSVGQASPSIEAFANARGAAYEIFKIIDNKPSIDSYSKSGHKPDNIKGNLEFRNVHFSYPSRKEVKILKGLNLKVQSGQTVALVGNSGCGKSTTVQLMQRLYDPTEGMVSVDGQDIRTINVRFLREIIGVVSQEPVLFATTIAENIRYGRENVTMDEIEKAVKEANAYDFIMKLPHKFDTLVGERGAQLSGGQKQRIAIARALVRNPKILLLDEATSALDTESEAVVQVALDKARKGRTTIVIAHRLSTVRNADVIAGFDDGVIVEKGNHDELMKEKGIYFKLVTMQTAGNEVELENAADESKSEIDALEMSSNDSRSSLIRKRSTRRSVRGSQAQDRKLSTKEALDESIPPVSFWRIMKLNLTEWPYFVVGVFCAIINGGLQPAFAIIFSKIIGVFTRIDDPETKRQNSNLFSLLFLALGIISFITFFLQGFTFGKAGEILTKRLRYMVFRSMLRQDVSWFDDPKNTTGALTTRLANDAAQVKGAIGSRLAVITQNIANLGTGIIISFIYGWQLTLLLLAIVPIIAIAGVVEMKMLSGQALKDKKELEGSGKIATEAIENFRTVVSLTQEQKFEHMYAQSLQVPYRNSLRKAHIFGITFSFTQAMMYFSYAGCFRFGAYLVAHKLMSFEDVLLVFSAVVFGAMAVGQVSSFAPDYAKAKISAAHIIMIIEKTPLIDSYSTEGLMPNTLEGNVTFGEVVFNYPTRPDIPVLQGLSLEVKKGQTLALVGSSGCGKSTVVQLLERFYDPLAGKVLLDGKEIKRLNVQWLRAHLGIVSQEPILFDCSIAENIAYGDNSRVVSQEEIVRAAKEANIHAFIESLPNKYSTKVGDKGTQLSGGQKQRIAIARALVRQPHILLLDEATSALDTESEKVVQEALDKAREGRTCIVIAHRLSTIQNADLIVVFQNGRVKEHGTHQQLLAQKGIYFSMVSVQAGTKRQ

| efflux ratio at 2 h | Compound |
| --- | --- |
| 3 to 10 | CC#CCOc1cnc(C(=O)Nc2ccc(F)c([C@@]3(C)N=C(N)O[C@@H]4CCC(F)(F)[C@@H]43)c2)cn1 [Example 1, 5-But-2-ynyloxy-pyrazine-2-carboxylic acid [3-((4S,4aR,7aR)-2-amino-5,5-difluoro-4-methyl-4,4a,5,6,7,7a-hexahydro-cyclopenta[e][1,3]oxazin-4-yl)-4-fluoro-phenyl]-amide] |
| 3 to 10 | C[C@]1(c2cc(NC(=O)c3ccc(C#N)cn3)ccc2F)N=C(N)O[C@@H]2CCC(F)(F)[C@@H]21 [Example 2, 5-Cyano-pyridine-2-carboxylic acid [3-((4S,4aR,7aR)-2-amino-5,5-difluoro-4-methyl-4,4a,5,6,7,7a-hexahydro-cyclopenta[e][1,3]oxazin-4-yl)-4-fluoro-phenyl]-amide] |
